Assay results published in patent publication US8952024B2, “Herbicidal pyrimidone derivatives” (E I du Pont de Nemours and Company, priority 2009, dated 2015).

Columns and labels:
Assay type in all cases: in vivo
[1] = system: barnyardgrass (Echinochloa crus-galli); assay: Test B flooded paddy test; details: for Plant response rating, Flood, Barnyardgrass: 250 g ai/ha, flooded paddy test, visual rating on 0 to 100 scale (0 no effect, 100 complete control) after 13 to 15 days; for Plant response rating, Barnyardgrass: Flood (flooded paddy test), 13 to 15 days
Method in brief: (§1)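 Flooded-pot test: water raised to 3 cm above soil when treating, compound put in the water, level unchanged thereafter. Plants were at 2 leaves. Readout after 13 to 15 days, visual, relative to controls; 0 signifies no effect and 100 complete control.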

rice (Oryza sativa) = assay: Test B flooded paddy test; details: for Plant response rating, Flood, Rice: 250 g ai/ha, flooded paddy test, visual rating on 0 to 100 scale (0 no effect, 100 complete control) after 13 to 15 days; for Plant response rating, Rice: Flood (flooded paddy test), 13 to 15 days
Method in brief: as §1

[2] = system: umbrella sedge (Cyperus difformis); assay: Test B flooded paddy test; details: for Plant response rating, Flood, Sedge, Umbrella: 250 g ai/ha, flooded paddy test, visual rating on 0 to 100 scale (0 no effect, 100 complete control) after 13 to 15 days; for Plant response rating, Sedge, Umbrella: Flood (flooded paddy test), 13 to 15 days
Method in brief: as §1

[3] = system: ducksalad (Heteranthera limosa); assay: Test B flooded paddy test; details: for Plant response rating, Flood, Ducksalad: 250 g ai/ha, flooded paddy test, visual rating on 0 to 100 scale (0 no effect, 100 complete control) after 13 to 15 days; for Plant response rating, Ducksalad: Flood (flooded paddy test), 13 to 15 days
Method in brief: as §1

[4] = system: winter barley (Hordeum vulgare); assay: Test B postemergence plant response; details: Postemergence
Method in brief: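 Plants at the 1- to 4-leaf stage (2 to 18 cm tall), grown in pots of peat moss/vermiculite medium with wetting agent and starter nutrients, received postemergence applications of test chemicals. After 13 to 15 days in a greenhouse, injury was rated visually against untreated controls on a 0 (no effect) to 100 (complete control) scale.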

[5] = system: barnyardgrass (Echinochloa crus-galli); assay: Test A pre-/postemergence plant response
Method in brief: (§2)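 Visually rated 0–100 injury (100 = complete control) versus untreated plants, ~10 days in greenhouse. Application pre- (soil spray, loam/sand) and postemergence (2–10 cm, 1–2 leaf stage), same timepoint.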

[6] = system: wheat (Triticum aestivum); assay: Test A pre-/postemergence plant response
Method in brief: as §2

[7] = system: velvetleaf (Abutilon theophrasti); assay: Test A pre-/postemergence plant response
Method in brief: as §2

corn (Zea mays) = assay: Test A pre-/postemergence plant response
Method in brief: as §2

[8] = system: pigweed (Amaranthus retroflexus); assay: Test A pre-/postemergence plant response
Method in brief: as §2

[9] = system: giant foxtail (Setaria faberii); assay: Test A pre-/postemergence plant response
Method in brief: as §2

[10] = system: large crabgrass (Digitaria sanguinalis); assay: Test A pre-/postemergence plant response
Method in brief: as §2

[11] = system: morningglory (Ipomoea spp.); assay: Test A pre-/postemergence plant response
Method in brief: as §2

[12] = 62 g ai/ha, scale of 0 to 100 where 0 is no effect and 100 is complete control
[13] = 125 g ai/ha, scale 0 to 100, 0 is no effect, 100 is complete control
[14] = Flood, 31 g ai/ha, scale 0 to 100 (0 no effect, 100 complete control)
[15] = 31 g ai/ha, 0 to 100 scale (0 no effect, 100 complete control)
[16] = 62 g ai/ha, scale 0 to 100 (0 no effect, 100 complete control)
[17] = 125 g ai/ha, scale 0 to 100 (0 no effect, 100 complete control)
[18] = 250 g ai/ha, scale 0 to 100 (0 no effect, 100 complete control), 13 to 15 days
[19] = Postemergence, 125 g ai/ha, 0 to 100 scale where 0 is no effect and 100 is complete control
[20] = Postemergence, 500 g ai/ha, visual injury, 0 to 100 scale (0 no effect, 100 complete control), approx. ten days
[21] = Preemergence, 125 g ai/ha, 0 to 100 scale, 0 = no effect, 100 = complete control
[22] = Preemergence, 500 g ai/ha, 0 to 100 scale, 0 = no effect, 100 = complete control
[23] = 31 g ai/ha, scale of 0 to 100 where 0 is no effect and 100 is complete control
[24] = 62 g ai/ha, scale 0 to 100, 0 is no effect, 100 is complete control
[25] = Postemergence, 125 g ai/ha, visual injury, 0 to 100 scale (0 no effect, 100 complete control), approx. ten days
[26] = Postemergence, 500 g ai/ha, 0 to 100 scale, 0 = no effect, 100 = complete control, approx. ten days
[27] = Preemergence, 500 g ai/ha, visual injury, 0 to 100 scale (0 no effect, 100 complete control), approx. ten days

CCc1ccc(-n2c(-c3ccccc3)ncc(C(=O)C3=C(O)CCCC3=O)c2=O)cc1 [Compound 219]
Plant response rating, Flood, Barnyardgrass [1]: 60
Plant response rating, Barnyardgrass [1, 12]: 0
Plant response rating, Barnyardgrass [1, 13]: 20
Barnyardgrass plant response rating [1, 14]: 0
Plant response rating, Flood, Rice (rice (Oryza sativa)): 75
Plant response rating, Rice (rice (Oryza sativa); [12]): 0
Plant response rating, Rice (rice (Oryza sativa); [13]): 70
Rice plant response rating (rice (Oryza sativa); [14]): 0
Plant response rating, Flood, Sedge, Umbrella [2]: 85
Plant response rating, Sedge, Umbrella [2, 12]: 40
Plant response rating, Sedge, Umbrella [2, 13]: 60
Sedge, Umbrella plant response rating [2, 14]: 20
Plant response rating, Flood, Ducksalad [3]: 90
Plant response rating, Ducksalad [3, 12]: 20
Plant response rating, Ducksalad [3, 13]: 65
Ducksalad plant response rating [3, 14]: 0
Plant response rating, Barley [4, 15]: 0
Plant response rating, Barley [4, 16]: 25
Plant response rating, Barley [4, 17]: 30
Plant response rating, Barley [4, 18]: 30
Plant response rating, Barnyardgrass [5, 19]: 90
Barnyardgrass plant response rating [5, 20]: 90
Plant response rating, Barnyardgrass [5, 21]: 40
Plant response rating, Barnyardgrass [5, 22]: 100
Plant response rating, Wheat [6, 19]: 0
Wheat plant response rating [6, 20]: 30
Plant response rating, Wheat [6, 21]: 0
Plant response rating, Wheat [6, 22]: 20
Plant response rating, Velvetleaf [7, 19]: 100
Velvetleaf plant response rating [7, 20]: 100
Plant response rating, Velvetleaf [7, 21]: 30
Plant response rating, Velvetleaf [7, 22]: 90
Plant response rating, Corn (corn (Zea mays); [19]): 0
Corn plant response rating (corn (Zea mays); [20]): 30
Plant response rating, Corn (corn (Zea mays); [21]): 0
Plant response rating, Corn (corn (Zea mays); [22]): 0
Plant response rating, Pigweed [8, 19]: 100
Pigweed plant response rating [8, 20]: 100
Plant response rating, Pigweed [8, 21]: 90
Plant response rating, Pigweed [8, 22]: 100
Plant response rating, Foxtail, Giant [9, 19]: 50
Foxtail, Giant plant response rating [9, 20]: 90
Plant response rating, Foxtail, Giant [9, 21]: 10
Plant response rating, Foxtail, Giant [9, 22]: 80
Plant response rating, Crabgrass, Large [10, 19]: 80
Crabgrass, Large plant response rating [10, 20]: 100
Plant response rating, Crabgrass, Large [10, 21]: 50
Plant response rating, Crabgrass, Large [10, 22]: 100
Plant response rating, Morningglory [11, 19]: 100
Morningglory plant response rating [11, 20]: 100
Plant response rating, Morningglory [11, 21]: 20
Plant response rating, Morningglory [11, 22]: 80

Cc1ccccc1-n1c(-c2cccc(Cl)c2)ncc(C(=O)C2=C(O)CCCC2=O)c1=O [Compound 36]
Plant response rating, Flood, Barnyardgrass [1]: 15
Plant response rating, Barnyardgrass [1, 23]: 0
Plant response rating, Barnyardgrass [1, 24]: 0
Plant response rating, Barnyardgrass [1, 13]: 0
Plant response rating, Flood, Rice (rice (Oryza sativa)): 35
Plant response rating, Rice (rice (Oryza sativa); [23]): 0
Plant response rating, Rice (rice (Oryza sativa); [24]): 0
Plant response rating, Rice (rice (Oryza sativa); [13]): 20
Plant response rating, Flood, Sedge, Umbrella [2]: 20
Plant response rating, Sedge, Umbrella [2, 23]: 0
Plant response rating, Sedge, Umbrella [2, 24]: 0
Plant response rating, Sedge, Umbrella [2, 13]: 0
Plant response rating, Flood, Ducksalad [3]: 40
Plant response rating, Ducksalad [3, 23]: 0
Plant response rating, Ducksalad [3, 24]: 0
Plant response rating, Ducksalad [3, 13]: 0
Plant response rating, Barley ([4]; 31 g ai/ha, scale 0 to 100 (0 no effect, 100 complete control)): 5
Plant response rating, Barley ([4]; 62 g ai/ha, scale 0 (no effect) to 100 (complete control), 13 to 15 days): 10
Plant response rating, Barley ([4]; 125 g ai/ha, visual rating after 13 to 15 days, scale 0 (no effect) to 100 (complete control)): 20
Barnyardgrass plant response rating [5, 25]: 90
Plant response rating, Barnyardgrass [5, 26]: 100
Plant response rating, Barnyardgrass [5, 21]: 10
Plant response rating, Barnyardgrass [5, 27]: 50
Wheat plant response rating [6, 25]: 0
Plant response rating, Wheat [6, 26]: 0
Plant response rating, Wheat [6, 21]: 0
Plant response rating, Wheat [6, 27]: 20
Velvetleaf plant response rating [7, 25]: 100
Plant response rating, Velvetleaf [7, 26]: 100
Plant response rating, Velvetleaf [7, 21]: 60
Plant response rating, Velvetleaf [7, 27]: 100
Corn plant response rating (corn (Zea mays); [25]): 0
Plant response rating, Corn (corn (Zea mays); [26]): 60
Plant response rating, Corn (corn (Zea mays); [21]): 0
Plant response rating, Corn (corn (Zea mays); [27]): 0
Pigweed plant response rating [8, 25]: 90
Plant response rating, Pigweed [8, 26]: 100
Plant response rating, Pigweed [8, 21]: 0
Plant response rating, Pigweed [8, 27]: 80
Foxtail, Giant plant response rating [9, 25]: 80
Plant response rating, Foxtail, Giant [9, 26]: 100
Plant response rating, Foxtail, Giant [9, 21]: 10
Plant response rating, Foxtail, Giant [9, 27]: 60
Crabgrass, Large plant response rating [10, 25]: 80
Plant response rating, Crabgrass, Large [10, 26]: 100
Plant response rating, Crabgrass, Large [10, 21]: 10
Plant response rating, Crabgrass, Large [10, 27]: 80
Morningglory plant response rating [11, 25]: 50
Plant response rating, Morningglory [11, 26]: 100
Plant response rating, Morningglory [11, 21]: 0
Plant response rating, Morningglory [11, 27]: 30

COCCn1c(-c2cccc(C)c2)ncc(C(=O)C2=C(O)C3CCC(C3)C2=O)c1=O (stereo not drawn) [Compound 233]
Plant response rating, Flood, Barnyardgrass [1]: 65
Plant response rating, Barnyardgrass [1, 12]: 20
Plant response rating, Flood, Rice (rice (Oryza sativa)): 50
Plant response rating, Rice (rice (Oryza sativa); [12]): 25
Plant response rating, Flood, Sedge, Umbrella [2]: 85
Plant response rating, Sedge, Umbrella [2, 12]: 70
Plant response rating, Flood, Ducksalad [3]: 100
Plant response rating, Ducksalad [3, 12]: 100
Plant response rating, Barley [4, 15]: 0
Plant response rating, Barley [4, 16]: 0
Plant response rating, Barley [4, 17]: 10
Plant response rating, Barley [4, 18]: 10
Plant response rating, Barnyardgrass [5, 19]: 90
Barnyardgrass plant response rating [5, 20]: 90
Plant response rating, Barnyardgrass [5, 21]: 30
Plant response rating, Barnyardgrass [5, 22]: 100
Plant response rating, Wheat [6, 19]: 20
Wheat plant response rating [6, 20]: 60
Plant response rating, Wheat [6, 21]: 0
Plant response rating, Wheat [6, 22]: 40
Plant response rating, Velvetleaf [7, 19]: 100
Velvetleaf plant response rating [7, 20]: 100
Plant response rating, Velvetleaf [7, 21]: 60
Plant response rating, Velvetleaf [7, 22]: 80
Plant response rating, Corn (corn (Zea mays); [19]): 60
Corn plant response rating (corn (Zea mays); [20]): 80
Plant response rating, Corn (corn (Zea mays); [21]): 0
Plant response rating, Corn (corn (Zea mays); [22]): 0
Plant response rating, Pigweed [8, 19]: 100
Pigweed plant response rating [8, 20]: 100
Plant response rating, Pigweed [8, 21]: 70
Plant response rating, Pigweed [8, 22]: 100
Plant response rating, Foxtail, Giant [9, 19]: 90
Foxtail, Giant plant response rating [9, 20]: 90
Plant response rating, Foxtail, Giant [9, 21]: 20
Plant response rating, Foxtail, Giant [9, 22]: 80
Plant response rating, Crabgrass, Large [10, 19]: 90
Crabgrass, Large plant response rating [10, 20]: 90
Plant response rating, Crabgrass, Large [10, 21]: 40
Plant response rating, Crabgrass, Large [10, 22]: 100
Plant response rating, Morningglory [11, 19]: 100
Morningglory plant response rating [11, 20]: 100
Plant response rating, Morningglory [11, 21]: 50
Plant response rating, Morningglory [11, 22]: 90
